Source: ChEMBL document CHEMBL5325488, “Discovery of SMD-3040 as a Potent and Selective SMARCA2 PROTAC Degrader with Strong in vivo Antitumor Activity” (J Med Chem, 2023)

How the values were obtained:
[1] = target: T1, von Hippel-Lindau disease tumor suppressor/SWI/SNF-related matrix-associated actin-dependent regulator of chromatin subfamily A member 2 (Homo sapiens, UniProt P51531+P40337); assay: PROTAC activity at VHL/wild-type SMARCA2 in human SK-MEL-28 cells assessed as induction of SMARCA2 degradation incubated for 24 hrs by Western blotting analysis; type: cell-based
Target sequence in this assay (P51531 whole entry): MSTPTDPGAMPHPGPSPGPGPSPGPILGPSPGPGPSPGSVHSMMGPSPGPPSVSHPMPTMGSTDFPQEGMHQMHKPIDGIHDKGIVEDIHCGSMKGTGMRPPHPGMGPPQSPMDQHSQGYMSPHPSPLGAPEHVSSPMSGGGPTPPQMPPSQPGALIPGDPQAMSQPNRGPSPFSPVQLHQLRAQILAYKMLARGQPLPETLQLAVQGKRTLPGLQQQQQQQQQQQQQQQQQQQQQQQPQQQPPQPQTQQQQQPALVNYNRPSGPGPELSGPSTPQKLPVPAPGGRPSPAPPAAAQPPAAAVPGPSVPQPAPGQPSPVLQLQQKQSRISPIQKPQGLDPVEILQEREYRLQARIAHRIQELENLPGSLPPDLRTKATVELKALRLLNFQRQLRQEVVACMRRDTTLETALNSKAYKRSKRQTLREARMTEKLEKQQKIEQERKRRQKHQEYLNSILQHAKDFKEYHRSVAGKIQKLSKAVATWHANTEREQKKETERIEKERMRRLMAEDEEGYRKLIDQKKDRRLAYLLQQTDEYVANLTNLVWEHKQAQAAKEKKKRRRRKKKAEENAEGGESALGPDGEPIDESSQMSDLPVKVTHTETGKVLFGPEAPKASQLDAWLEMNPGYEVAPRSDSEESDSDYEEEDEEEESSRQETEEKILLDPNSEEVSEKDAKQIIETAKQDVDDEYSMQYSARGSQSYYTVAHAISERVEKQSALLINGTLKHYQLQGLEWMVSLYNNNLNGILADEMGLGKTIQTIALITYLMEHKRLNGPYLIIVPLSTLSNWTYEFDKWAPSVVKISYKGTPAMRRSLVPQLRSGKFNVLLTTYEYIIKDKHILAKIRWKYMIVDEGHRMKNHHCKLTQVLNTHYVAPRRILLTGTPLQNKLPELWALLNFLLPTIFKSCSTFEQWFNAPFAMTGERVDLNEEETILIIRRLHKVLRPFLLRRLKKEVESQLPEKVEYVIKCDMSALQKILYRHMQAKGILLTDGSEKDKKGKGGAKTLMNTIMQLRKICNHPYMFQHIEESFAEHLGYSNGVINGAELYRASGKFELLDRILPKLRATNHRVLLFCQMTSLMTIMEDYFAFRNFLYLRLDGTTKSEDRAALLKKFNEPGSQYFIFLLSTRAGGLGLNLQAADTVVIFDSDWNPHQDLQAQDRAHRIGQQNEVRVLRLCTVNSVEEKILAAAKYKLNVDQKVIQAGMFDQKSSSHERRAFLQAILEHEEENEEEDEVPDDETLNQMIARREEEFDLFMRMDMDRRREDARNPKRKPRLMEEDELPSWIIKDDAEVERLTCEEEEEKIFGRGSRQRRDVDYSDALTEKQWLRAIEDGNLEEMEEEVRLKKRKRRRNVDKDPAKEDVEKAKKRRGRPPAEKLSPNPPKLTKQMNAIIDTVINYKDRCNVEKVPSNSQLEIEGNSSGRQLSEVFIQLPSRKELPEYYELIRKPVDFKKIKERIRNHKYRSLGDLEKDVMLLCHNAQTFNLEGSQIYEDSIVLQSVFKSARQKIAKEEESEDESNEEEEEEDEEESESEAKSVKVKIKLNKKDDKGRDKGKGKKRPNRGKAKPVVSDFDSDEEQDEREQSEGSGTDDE
Target sequence in this assay (P40337 whole entry): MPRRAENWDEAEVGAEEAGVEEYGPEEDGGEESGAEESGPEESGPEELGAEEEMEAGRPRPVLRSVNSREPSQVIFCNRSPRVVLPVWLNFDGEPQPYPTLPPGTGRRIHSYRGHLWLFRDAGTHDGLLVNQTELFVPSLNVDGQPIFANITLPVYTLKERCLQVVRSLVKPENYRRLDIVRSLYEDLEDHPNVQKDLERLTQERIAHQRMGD

SK-MEL-5 [2] = assay: Antitumor activity against SMARCA4-deficient human SK-MEL-5 cells xenografted in SCID mouse assessed as tumor growth inhibition at 25 mg/kg, iv administered twice a week measured after 32 days relative to control; type: functional; conditions: SK-MEL-5, 768 h, time 32 day, read-out: TGI
[3] = target: T2, von Hippel-Lindau disease tumor suppressor/SWI/SNF-related matrix-associated actin-dependent regulator of chromatin subfamily A member 4 (Homo sapiens, UniProt P51532+P40337); assay: PROTAC activity at VHL/C-terminal HiBiT fused SMARCA4 in human HeLa cells assessed as induction of SMARCA4 degradation by measuring maximal efficacy at 0.001 to 10 uM incubated for 24 hrs by Nano-Glo HiBiT analysis relative to control; type: cell-based; conditions: dose 0.001-10 µM
[4] = target: T1, von Hippel-Lindau disease tumor suppressor/SWI/SNF-related matrix-associated actin-dependent regulator of chromatin subfamily A member 2; assay: PROTAC activity at VHL/wild-type SMARCA2 in human NCI-H838 cells assessed as induction of SMARCA2 degradation at 0.001 to 1000 nM incubated for 24 hrs by Western blotting analysis relative to control; type: cell-based; conditions: dose 0.001-1000 nM
NCI-H1975 [5] = assay: Antiproliferative activity against human NCI-H1975 cells expressing wild-type SMARCA2 assessed as cell growth inhibition by measuring maximal efficacy measured after 7 days by WST-8 assay relative to control; type: functional; conditions: time 7 day
[6] = target: T2, von Hippel-Lindau disease tumor suppressor/SWI/SNF-related matrix-associated actin-dependent regulator of chromatin subfamily A member 4; assay: In vivo PROTAC activity at VHL/SMARCA4 in SCID mouse xenografted with human MV4-11 cells assessed as reduction of SMARCA4 level in tumor at 50 mg/kg, iv administered as single dose measured after 2 hrs by Western blotting analysis; type: ADME, organism-based; set-up: scale not given: the % may be the effect or the level left
Target sequence in this assay (P51532 whole entry, the tested form may be a part): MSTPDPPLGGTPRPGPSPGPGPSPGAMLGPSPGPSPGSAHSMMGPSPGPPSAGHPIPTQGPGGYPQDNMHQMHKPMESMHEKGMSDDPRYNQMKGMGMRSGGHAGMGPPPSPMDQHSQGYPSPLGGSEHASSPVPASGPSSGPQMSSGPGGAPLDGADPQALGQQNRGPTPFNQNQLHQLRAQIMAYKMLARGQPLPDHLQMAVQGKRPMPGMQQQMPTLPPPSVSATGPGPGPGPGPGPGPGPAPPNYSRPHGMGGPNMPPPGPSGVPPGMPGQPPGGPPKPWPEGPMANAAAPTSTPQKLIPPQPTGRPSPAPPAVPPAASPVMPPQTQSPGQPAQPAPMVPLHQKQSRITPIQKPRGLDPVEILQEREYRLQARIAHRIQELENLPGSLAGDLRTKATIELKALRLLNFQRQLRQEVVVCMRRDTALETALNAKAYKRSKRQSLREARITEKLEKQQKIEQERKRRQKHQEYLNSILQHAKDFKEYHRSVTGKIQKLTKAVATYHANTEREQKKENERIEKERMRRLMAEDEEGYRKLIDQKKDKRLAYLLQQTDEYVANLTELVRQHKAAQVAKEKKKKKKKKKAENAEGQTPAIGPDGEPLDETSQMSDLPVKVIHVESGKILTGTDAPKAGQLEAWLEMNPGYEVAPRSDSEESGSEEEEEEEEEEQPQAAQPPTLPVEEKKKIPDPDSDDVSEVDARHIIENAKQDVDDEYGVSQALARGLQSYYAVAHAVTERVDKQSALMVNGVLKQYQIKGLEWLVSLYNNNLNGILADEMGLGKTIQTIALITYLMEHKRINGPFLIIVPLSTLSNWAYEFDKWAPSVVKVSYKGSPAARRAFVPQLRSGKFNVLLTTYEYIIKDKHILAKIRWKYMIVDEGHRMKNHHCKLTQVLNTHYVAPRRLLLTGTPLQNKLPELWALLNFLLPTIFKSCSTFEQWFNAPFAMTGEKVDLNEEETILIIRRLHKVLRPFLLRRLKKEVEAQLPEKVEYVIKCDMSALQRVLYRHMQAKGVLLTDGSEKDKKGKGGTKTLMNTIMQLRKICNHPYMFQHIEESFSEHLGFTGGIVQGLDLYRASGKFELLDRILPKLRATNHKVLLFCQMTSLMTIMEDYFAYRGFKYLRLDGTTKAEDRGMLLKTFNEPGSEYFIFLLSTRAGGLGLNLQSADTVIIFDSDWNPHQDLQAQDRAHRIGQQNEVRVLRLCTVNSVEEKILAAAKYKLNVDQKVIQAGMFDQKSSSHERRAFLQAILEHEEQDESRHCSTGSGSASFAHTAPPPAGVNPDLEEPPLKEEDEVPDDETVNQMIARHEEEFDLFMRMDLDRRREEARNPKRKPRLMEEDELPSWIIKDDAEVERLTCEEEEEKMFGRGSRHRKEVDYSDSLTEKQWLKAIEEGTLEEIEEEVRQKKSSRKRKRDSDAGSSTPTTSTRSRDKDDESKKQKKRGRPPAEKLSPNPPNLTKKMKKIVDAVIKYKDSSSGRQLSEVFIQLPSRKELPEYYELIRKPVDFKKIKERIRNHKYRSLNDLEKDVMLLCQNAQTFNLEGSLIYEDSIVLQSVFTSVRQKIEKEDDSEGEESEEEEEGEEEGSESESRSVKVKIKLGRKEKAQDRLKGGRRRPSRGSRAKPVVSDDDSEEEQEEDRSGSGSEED
Target sequence in this assay (P40337 whole entry, the tested form may be a part): as the sequence (P40337 whole entry) above

SK-MEL-28 = assay: Antiproliferative activity against human SK-MEL-28 cells expressing wild-type SMARCA2 assessed as cell growth inhibition measured after 7 days by WST-8 assay; type: functional; conditions: SK-MEL-28, 168 h, time 7 day
[7] = Drug concentration in SCID mouse plasma xenografted with human MV4-11 cells at 50 mg/kg, iv measured after 72 hrs by LC-MS/MS method; type: ADME, organism-based
SK-MEL-5 [8] = assay: Antiproliferative activity against SMARCA4-deficient human SK-MEL-5 cells assessed as cell growth inhibition by measuring maximal efficacy measured after 7 days by WST-8 assay relative to control; type: functional; conditions: time 7 day
[9] = Toxicity in SCID mouse xenografted with human SK-MEL-5 cells assessed as effect on change in body weight at 25 to 50 mg/kg, iv administered twice a week measured after 32 days; type: organism-based; conditions: in vivo, 768 h, dose 25-50 mg/kg, time 32 day
[10] = target: T1, von Hippel-Lindau disease tumor suppressor/SWI/SNF-related matrix-associated actin-dependent regulator of chromatin subfamily A member 2; assay: PROTAC activity at VHL/C-terminal HiBiT fused SMARCA2 in human HeLa cells assessed as induction of SMARCA2 degradation at 0.0001 to 1 uM incubated for 3 hrs by Nano-Glo HiBiT analysis relative to control; type: cell-based; conditions: dose 0.0001-1 µM
[11] = Drug concentration in SCID mouse plasma xenografted with human MV4-11 cells at 50 mg/kg, iv measured after 24 hrs by LC-MS/MS method; type: ADME, organism-based
[12] = target: T1, von Hippel-Lindau disease tumor suppressor/SWI/SNF-related matrix-associated actin-dependent regulator of chromatin subfamily A member 2; assay: PROTAC activity at VHL/C-terminal HiBiT fused SMARCA2 in human HeLa cells assessed as induction of SMARCA2 degradation incubated for 6 hrs by Nano-Glo HiBiT analysis; type: cell-based
Target sequence in this assay (P51531 whole entry): as the sequence (P51531 whole entry) above
Target sequence in this assay (P40337 whole entry): as the sequence (P40337 whole entry) above

[13] = target: T1, von Hippel-Lindau disease tumor suppressor/SWI/SNF-related matrix-associated actin-dependent regulator of chromatin subfamily A member 2; assay: In vivo PROTAC activity at VHL/SMARCA2 in SCID mouse xenografted with human NCI-H838 cells assessed as remaining activity in tumor at 50 mg/kg, iv administered as single dose measured after 3 hrs by Western blotting analysis (reference value: 100 +/- 7% ); type: functional, organism-based
[14] = target: T1, von Hippel-Lindau disease tumor suppressor/SWI/SNF-related matrix-associated actin-dependent regulator of chromatin subfamily A member 2; assay: PROTAC activity at VHL/C-terminal HiBiT fused SMARCA2 in human HeLa cells assessed as induction of SMARCA2 degradation incubated for 24 hrs by Nano-Glo HiBiT analysis; type: cell-based
Target sequence in this assay (P51531 whole entry): as the sequence (P51531 whole entry) above
Target sequence in this assay (P40337 whole entry): as the sequence (P40337 whole entry) above

[15] = target: T2, von Hippel-Lindau disease tumor suppressor/SWI/SNF-related matrix-associated actin-dependent regulator of chromatin subfamily A member 4; assay: PROTAC activity at VHL/C-terminal HiBiT fused SMARCA4 in human HeLa cells assessed as induction of SMARCA4 degradation by measuring maximal efficacy at 0.001 to 10 uM incubated for 1 hr by Nano-Glo HiBiT analysis relative to control; type: cell-based; conditions: dose 0.001-10 µM
[16] = target: T2, von Hippel-Lindau disease tumor suppressor/SWI/SNF-related matrix-associated actin-dependent regulator of chromatin subfamily A member 4; assay: PROTAC activity at VHL/C-terminal HiBiT fused SMARCA4 in human HeLa cells assessed as induction of SMARCA4 degradation incubated for 6 hrs by Nano-Glo HiBiT analysis; type: cell-based
Target sequence in this assay (P51532 whole entry, the tested form may be a part): as the sequence (P51532 whole entry, the tested form may be a part) above
Target sequence in this assay (P40337 whole entry, the tested form may be a part): as the sequence (P40337 whole entry) above

[17] = target: T2, von Hippel-Lindau disease tumor suppressor/SWI/SNF-related matrix-associated actin-dependent regulator of chromatin subfamily A member 4; assay: PROTAC activity at VHL/C-terminal HiBiT fused SMARCA4 in human HeLa cells assessed as induction of SMARCA4 degradation incubated for 1 hr by Nano-Glo HiBiT analysis; type: cell-based
Target sequence in this assay (P51532 whole entry, the tested form may be a part): as the sequence (P51532 whole entry, the tested form may be a part) above
Target sequence in this assay (P40337 whole entry, the tested form may be a part): as the sequence (P40337 whole entry) above

[18] = target: T1, von Hippel-Lindau disease tumor suppressor/SWI/SNF-related matrix-associated actin-dependent regulator of chromatin subfamily A member 2; assay: PROTAC activity at VHL/wild-type SMARCA2 in human NCI-H838 cells assessed as induction of SMARCA2 degradation incubated for 24 hrs by Western blotting analysis; type: cell-based
Target sequence in this assay (P51531 whole entry): as the sequence (P51531 whole entry) above
Target sequence in this assay (P40337 whole entry): as the sequence (P40337 whole entry) above

NCI-H838 = assay: Antitumor activity against SMARCA4-deficient human NCI-H838 cells xenografted in SCID mouse assessed as tumor growth inhibition at 50 mg/kg, iv administered twice a week measured after 3 weeks relative to control; type: functional; conditions: NCI-H838, 504 h, read-out: TGI
[19] = target: T1, von Hippel-Lindau disease tumor suppressor/SWI/SNF-related matrix-associated actin-dependent regulator of chromatin subfamily A member 2; assay: In vivo PROTAC activity at VHL/SMARCA2 in SCID mouse xenografted with human NCI-H838 cells assessed as reduction of SMARCA2 level in tumor at 50 mg/kg, iv administered as single dose measured after 3 hrs by Western blotting analysis; type: functional, organism-based; set-up: scale not given: the % may be the effect or the level left
[20] = target: T1, von Hippel-Lindau disease tumor suppressor/SWI/SNF-related matrix-associated actin-dependent regulator of chromatin subfamily A member 2; assay: In vivo PROTAC activity at VHL/SMARCA2 in SCID mouse xenografted with human MV4-11 cells assessed as remaining activity in tumor at 50 mg/kg, iv administered as single dose measured after 6 hrs by Western blotting analysis (reference value: 100 +/- 15 % ); type: ADME, organism-based
Target sequence in this assay (P51531 whole entry): as the sequence (P51531 whole entry) above
Target sequence in this assay (P40337 whole entry): as the sequence (P40337 whole entry) above

[21] = target: T1, von Hippel-Lindau disease tumor suppressor/SWI/SNF-related matrix-associated actin-dependent regulator of chromatin subfamily A member 2; assay: PROTAC activity at VHL/C-terminal HiBiT fused SMARCA2 in human HeLa cells assessed as induction of SMARCA2 degradation incubated for 1 hr by Nano-Glo HiBiT analysis; type: cell-based
Target sequence in this assay (P51531 whole entry): as the sequence (P51531 whole entry) above
Target sequence in this assay (P40337 whole entry): as the sequence (P40337 whole entry) above

[22] = target: T2, von Hippel-Lindau disease tumor suppressor/SWI/SNF-related matrix-associated actin-dependent regulator of chromatin subfamily A member 4; assay: In vivo PROTAC activity at VHL/SMARCA4 in SCID mouse xenografted with human MV4-11 cells assessed as reduction of SMARCA4 level in tumor at 50 mg/kg, iv administered as single dose measured after 48 hrs by Western blotting analysis; type: ADME, organism-based; set-up: scale not given: the % may be the effect or the level left
Target sequence in this assay (P51532 whole entry, the tested form may be a part): as the sequence (P51532 whole entry, the tested form may be a part) above
Target sequence in this assay (P40337 whole entry, the tested form may be a part): as the sequence (P40337 whole entry) above

[23] = target: T1, von Hippel-Lindau disease tumor suppressor/SWI/SNF-related matrix-associated actin-dependent regulator of chromatin subfamily A member 2; assay: PROTAC activity at VHL/C-terminal HiBiT fused SMARCA2 in human HeLa cells assessed as induction of SMARCA2 degradation at 0.0001 to 1 uM incubated for 1 hr by Nano-Glo HiBiT analysis relative to control; type: cell-based; conditions: dose 0.0001-1 µM
NCI-H1975 [24] = assay: Antiproliferative activity against human NCI-H1975 cells expressing wild-type SMARCA2 assessed as cell growth inhibition measured after 7 days by WST-8 assay; type: functional; conditions: NCI-H1975, 168 h, time 7 day

Question: Which DC50 [1] does the source give for `Cc1ncsc1-c1ccc([C@H](C)NC(=O)[C@@H]2C[C@@H](O)CN2C(=O)[C@@H](NC(=O)[C@H]2CC[C@H](CN3CC4(CCC(n5cc(-c6cc(-c7ccccc7O)nnc6N)cn5)CC4)C3)CC2)C(C)(C)C)cc1` here?
Answer: The DC50 was 0.035 µM.

Question: And the inhibition in vivo at 25 mg/kg (SK-MEL-5 [2])?
Answer: Its inhibition in vivo at 25 mg/kg is 54%.

Question: And the Emax [3]?
Answer: Its Emax is 57%.

Question: What about the Emax [4] of the same molecule?
Answer: The Emax was 90%.

Question: What about the Imax (NCI-H1975 [5]) of the same molecule?
Answer: Its Imax is 47%.

Question: What about the Activity [6] of the same molecule?
Answer: Its Activity is 7%.

Question: What about the GI50 (SK-MEL-28) of the same molecule?
Answer: Its GI50 is greater than 10 µM.

Question: What about the concentration at 72 h [7] of the same molecule?
Answer: The concentration at 72 h was 0.0067 µg/mL.

Question: And the Imax (SK-MEL-5 [8])?
Answer: Its Imax is 95%.

Question: And the Activity [9]?
Answer: Its Activity is “Non-Toxic”.

Question: What about the Emax [10] of the same molecule?
Answer: Its Emax is 79%.

Question: And the concentration at 24 h [11]?
Answer: Its concentration at 24 h is 0.218 µg/mL.

Question: And the DC50 [12]?
Answer: Its DC50 is 0.044 µM.

Question: And the Activity [13]?
Answer: The Activity was 30%.

Question: And the DC50 [14]?
Answer: Its DC50 is 0.01 µM.

Question: What about the Emax [15] of the same molecule?
Answer: The Emax was 20%.

Question: And the DC50 [16]?
Answer: Its DC50 is greater than 3.3 µM.

Question: And the DC50 [17]?
Answer: The DC50 was greater than 3.3 µM.

Question: What about the DC50 [18] of the same molecule?
Answer: The DC50 was 0.063 µM.

Question: And the inhibition in vivo at 50 mg/kg (NCI-H838)?
Answer: The inhibition in vivo at 50 mg/kg was 81%.

Question: And the Activity [19]?
Answer: The Activity was 70%.

Question: What about the Activity [20] of the same molecule?
Answer: The Activity was 30%.

Question: What about the DC50 [21] of the same molecule?
Answer: Its DC50 is 0.25 µM.

Question: And the Activity [22]?
Answer: Its Activity is 13%.

Question: What about the Emax [23] of the same molecule?
Answer: Its Emax is 66%.

Question: And the GI50 (NCI-H1975 [24])?
Answer: The GI50 was greater than 10 µM.
